Source: US20070270339A1, “Use of GPCR54 Ligands for the Treatment of Infertility” (SERONO, INC., priority 2004, published 2007)
No end group written: not given here.

Legend:
[1] = tested on: gonadotropic axis (plasma LH and FSH); test: i.c.v. injection of Kiss-1: plasma LH and FSH levels; type: in vivo, rat
Protocol: (§1) All experiments were conducted in female Sprague-Dawley rats (180-200 g) obtained from Charles River (MA), fed with standard laboratory chow and water ad libitum, kept on 12 h light-dark in temperature and humidity controlled room.
Implantation of intracerebroventricular cannula for i.c.v. experiment. The head of anesthetized rats was placed in the stereotaxic instrument and oriented such that the bregma and lambda was horizontal. An incision was made along the sagittal midline in an anterior-to-posterior direction. A hole, 1.5 mm in diameter, was drilled through the skull 0.9 mm posterior and 0.0 mm lateral to bregma. A 25 mm×22 gauge stainless steel cannula was lowered about 7 mm until cerebrospinal fluid could be aspirated from the 3rd ventricle via a 1 cc syringe connected to the cannula by a 5 cm section of Silastic tubing. After sealing the outer opening of the cannula, it was anchored to the skull with three stainless steel screws and dental acrylic cement then the incision was closed. Rats were allowed to recover for 14 days.
(§2) Ovariectomy and implantation of estrogen-containing capsule. To remove daily variance of plasma estrogen levels due to variable estrous cycle, both ovaries were removed under anesthesia through incision at the animal's back. Right before closure of the incision, two estrogen-containing capsules (0.5 mg/coupsule, Innovative Research of America, FL) were inserted subcutaneously at the middle of animal's back to maintain consistent basal physiological levels of plasma estrogen. Rats were allowed to recover for 7 days.
Jugular cannula insertion and tethering to automated blood sampler. The right jugular vein of anesthetized rats was exposed through a neck incision. A retaining suture was tied to the exposed vein at rostral end to manipulate the vein. The caudal end of the vein was clamped with a small forceps to prevent bleeding while a cannula, a polyethene tubing (OD 1.0 mm), was inserted in the middle of the vein through a 0.5 mm incision made with iris scissors. After the insertion of the cannula, a suture was tied around the vein at the caudal end to secure the cannula within the vein. […]
(§3) Changes of plasma LH and FSH concentration (ng/ml) after injection were obtained as the area under the curve (AUC). It was first determined for each animal by calculating the sum of post-treatment hormonal levels at 15, 30 and 45 min each of which was subtracted by basal levels (an average of pre-treatment levels at −15 and 0 min), then averaged as a group. Statistical differences among treatment groups were determined by one-way ANOVA followed by LSD as a post-hoc test. […]

[2] = tested on: gonadotropic axis (plasma LH and FSH); test: i.v. injection of Kiss-1: plasma LH and FSH levels, with or without Antide pretreatment; type: in vivo, rat
Protocol: as §1, §2
Jugular cannula insertion and tethering to automated blood sampler. The right jugular vein of anesthetized rats was exposed through a neck incision. A retaining suture was tied to the exposed vein at rostral end to manipulate the vein. The caudal end of the vein was clamped with a small forceps to prevent bleeding while a cannula, a polyethene tubing (OD 1.0 mm), was inserted in the middle of the vein through a 0.5 mm incision made with iris scissors. After the insertion of the cannula, a suture was tied around the vein at the caudal end to secure the cannula within the vein. The incision at the neck was closed with wound clips and the outer end of the cannula was attached to a tubing of an automated blood sampler (Bioanalytical Systems Inc., IN) filled with heparin-containing (20 IU/ml) sterile saline. The automated blood sampler consisting of a turning cage equipped with a food box and a water bottle, a balanced arm, a pumping system, a fraction collector and a controller was used to collect blood samples. A rat inserted of a jugular cannula was tethered to the balanced arm via a loosely-fitting plastic collar. The cage rotates to the counter direction of animal's movement to prevent twisting of the jugular cannula connected to a tubing of the sampler, as well as to allow the rat to eat, drink and move freely during the course of the blood collection. Rats were allowed to recover for 24 hours.
All experiments were carried out around between 13 h and 14 h. […]
as §3

LH and FSH release = test: in vivo comparison of GnRH and Kiss1 on release of LH and FSH over 45 minutes (FIG. 1); set-up: species or system rat; conditions: single administration, compared with GnRH
Protocol: All experiments were carried out around between 13 h and 14 h. […] Blood samples (100 ul) were removed before (−15 and 0 min) and after (15, 30, 45 min) injection with the automated blood sampler. Each blood sample was replaced with an equivalent volume of the heparin-containing (20 IU/ml) sterile saline. Plasma was extracted and stored at −20° C. until determination of LH and FSH by enzyme-linked immunoassay and radioimmunoassay, respectively.
Changes of plasma LH and FSH concentration (ng/ml) after injection were obtained as the area under the curve (AUC). It was first determined for each animal by calculating the sum of post-treatment hormonal levels at 15, 30 and 45 min each of which was subtracted by basal levels (an average of pre-treatment levels at −15 and 0 min), then averaged as a group. Statistical differences among treatment groups were determined by one-way ANOVA followed by LSD as a post-hoc test. An initial data set is shown in FIGS. 1A-P. Further data are described in Examples 2 and 3 below.

GPCR54 = GPCR54 (Homo sapiens, UniProt Q969F8); conditions: peptides from placental tissue extract, Kotani et al. 2001; cited from earlier work
GPCR54, sequence (Q969F8 whole entry): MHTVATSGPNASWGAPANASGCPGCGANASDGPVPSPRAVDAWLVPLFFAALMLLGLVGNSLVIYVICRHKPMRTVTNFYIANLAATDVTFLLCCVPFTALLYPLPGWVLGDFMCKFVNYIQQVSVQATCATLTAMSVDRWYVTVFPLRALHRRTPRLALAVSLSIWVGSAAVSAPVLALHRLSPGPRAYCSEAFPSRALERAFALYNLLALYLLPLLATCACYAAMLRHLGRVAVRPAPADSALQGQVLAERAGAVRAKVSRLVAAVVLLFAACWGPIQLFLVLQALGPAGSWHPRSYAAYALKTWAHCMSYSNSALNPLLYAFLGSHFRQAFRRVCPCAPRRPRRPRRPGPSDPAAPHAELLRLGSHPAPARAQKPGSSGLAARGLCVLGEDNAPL

In the case of “Tyr-Asn-Trp-Asn-Ser-Phe-Gly-Leu-Arg-Phe-NH2 (YNWNSFGLRF-NH2; listed as Homo sapiens) [Kiss-1]”, the “i.c.v. dose to yield FSH response as fraction of i.v. dose” value ([1]; FSH, i.c.v. versus i.v.) is reported as 1/100, the “i.c.v. dose to yield LH response as fraction of i.v. dose” value ([1]; LH, i.c.v. versus i.v.) is reported as 1/25 and the LH release ([1]; i.c.v. injection, estrogen-treated ovariectomized rats) is reported as “dose-dependently stimulated LH release”. The FSH levels ([1]; i.c.v. injection, higher dose not as effective as the lower dose) was “significant increase of FSH levels”, the “plasma FSH levels” value ([2]; i.v. injection, estrogen-treated ovariectomized rats) was “dose-dependent increases” and the “plasma LH levels” value ([2]; i.v. injection, estrogen-treated ovariectomized rats, with the exception of LH response at the highest dose) was “dose-dependent increases”. For the same substance, the “LH and FSH production” value (LH and FSH release) was “sufficient to drive LH and FSH production similar to GnRH”.

In the case of “SEQ ID NO: 4: 54-amino acid kisspeptin from Kiss-1 with RF-amide at the C-terminus (Kotani et al.) (GTSLSPPPESSGSPQQPGLSAPHSRQIPAPQGAVLVQREKDLPNYNWNSFGLRF-NH2; listed as Homo sapiens)”, the “agonist activity at GPCR54” value (GPCR54) is listed as “agonists of GPCR54”.

For “SEQ ID NO:5: 14-amino acid kisspeptin from Kiss-1 with RF-amide at the C-terminus (Kotani et al.) (DLPNYNWNSFGLRF-NH2; listed as Homo sapiens)”, the “agonist activity at GPCR54” value (GPCR54) is given as “agonists of GPCR54”.

In the case of “GnRH: GnRH, a positive control, obtained from Sigma (QHWSYGLRPG; Gonadoliberin-1; UniProt P01148 24-33, looked up) [reference compound]”, the circulating gonadotropins levels ([2]; GnRH positive control, estrogen-treated ovariectomized rats) is reported as “induced elevations of circulating gonadotropins levels”.

For “SEQ ID NO:6: 13-amino acid kisspeptin from Kiss-1 with RF-amide at the C-terminus (Kotani et al.) (LPNYNWNSFGLRF-NH2; listed as Homo sapiens)”, the “agonist activity at GPCR54” value (GPCR54) is listed as “agonists of GPCR54”.

In the case of Antide [reference compound], the “prevention of GnRH- and Kiss-1-induced elevations of circulating gonadotropins levels” value ([2]; Antide pretreatment 15 min before injection of 400 ug/kg of Kiss-1) is reported as “successfully prevented”.
